Experimental data taken from patent US12012404B2, “Pyrimidoheterocyclic compounds and application thereof” (D3 BIO (WUXI) CO., LTD., priority 2020, dated 2024).

Columns and labels:
[1] = Stability assay in plasma, CD-1 mice; assay type: in vitro ADME; conditions: CD-1 mice plasma, 2 μM, 37° C.
Method: Purpose of the assay: Stabilities of the assay compounds in plasma of CD-1 mice and human were assayed, respectively.
Procedure of the assay: Cryopreserved plasma was thawed for 10-20 min. After the plasma was completely thawed, it was placed in a centrifuge and centrifuged at 3220×g for 5 min to remove any suspended matter and sediment in the plasma. 96-well incubation plates were prepared and named TO, T10, T30, T60, T120, respectively. 98 μL of blank plasmas of mouse, rat, canine, monkey and human were added to the corresponding incubation plates, then 2 μL of working solutions of the compound or the control compound were added to the corresponding plates in duplicate. All samples were incubated in a 37° C. water bath. The final incubation concentrations of the compound and the control compounds bisacodyl, enalapril maleate, procaine and probanthine were 2 μM, and the final organic phase content was 2.0%. At the end of incubation for each time point, the corresponding incubation plate was removed and 400 μL of a solution of 200 ng/mL of tolbutamide and labetalol in acetonitrile was added to each corresponding sample well to precipitate the protein. All sample plates were sealed and shaken well, and then centrifuged at 3220×g for 20 minutes. 50 μL of supernatant was taken out and diluted in 100 μL of ultrapure water. All samples were mixed well and then analyzed by LC/MS/MS.

[2] = Stability assay in whole blood, CD-1 mice; assay type: in vitro ADME; conditions: CD-1 mice whole blood, 5 μM, 37° C.
Method: Purpose of the assay: Stabilities of the assay compounds in whole blood of CD-1 mice, SD rats, Beagle dogs and cynomolgus monkeys were assayed, respectively.
Procedure of the assay: On the day of the assay or the day before the assay, fresh whole blood from CD-1 mice, SD rats, beagle dogs, and cynomolgus monkeys was collected using anticoagulant EDTA-K2. Prior to the start of the assay, the whole blood was mixed with PBS in 1:1 (v:v) and the mixture was preheated in a 37° C. water bath for 10-20 minutes. […] […] All samples were incubated in a 37° C. water bath. The final incubation concentration of the compound was 5 μM and the final incubation concentration of the control compound was 2 μM. At the end of incubation for each time point, the corresponding incubation plate was removed and 100 μL of ultrapure water was immediately added to the corresponding sample wells, and mixed well. 800 μL of a solution of 200 ng/mL tolbutamide and labetalol in acetonitrile was added to precipitate the protein. The sample plates were sealed and shaken well, and then centrifuged at 3220×g for 20 min. 150 μL of supernatant was taken out and analyzed by LC/MS/MS.

[3] = tested on: plasma protein of cynomolgus monkeys; assay: Protein binding rate by equilibrium dialysis, cynomolgus monkeys plasma; assay type: in vitro ADME; conditions: 2 μM, dialysis 4 hours
Method: Purpose of the assay: Protein binding rate of the assay compounds in plasma of CD-1 mice, SD rats, beagle dogs, cynomolgus monkeys and human was determined by equilibrium dialysis.
Procedure of the assay: Plasma samples with a compound concentration of 2 μM were prepared using plasma of the above five species, placed in a 96-well equilibrium dialysis device, and dialyzed with phosphate buffer solution at 37±1° C. for 4 hours. Warfarin was used as the control compound in this assay. The concentrations of the assay compounds in plasma and dialysis buffer were determined by LC-MS/MS method.

[4] = tested on: human pancreatic cancer Mia PaCa-2 cells; assay: Pharmacodynamics in vivo in subcutaneously transplanted tumor model of Mia PaCa-2 cells; parameters: species or system Balb/c Nude mice; conditions: day 22 of administration
Method: Assay on pharmacodynamics in vivo in a subcutaneously transplanted tumor model of human pancreatic cancer Mia PaCa-2 cells in Balb/c Nude mice
Cell culture: Human pancreatic cancer Mia PaCa-2 cells (ATCC-CRL-1420) were cultured in monolayer in vitro in DMEM medium with 10% fetal calf serum and 2.5% horse serum in a 37° C., 5% carbon dioxide incubator. Cells were passaged by routine digestion with trypsin-EDTA twice a week. When the cell saturation reached 80%-90% and the cell number met the requirement, the cells were harvested, counted, and resuspended in an appropriate amount of PBS. Matrigel was added in a ratio of 1:1 to obtain a cell suspension with a cell density of 25×10^6 cells/mL.
Cell inoculation: 0.2 mL (5×10^6 cells/mouse) of Mia PaCa-2 cells (plus Matrigel, 1:1 by volume) were subcutaneously inoculated into the right back of each mouse. When the average tumor volume reached 190 mm^3, mice were randomized into groups based on tumor volume and administration was initiated according to the protocol in Table 10.
Tumor diameter was measured with vernier caliper twice a week. The calculation formula of tumor volume was: V=0.5a×b^2, where a and b represent the long and short diameters of the tumor, respectively.
The anti-tumor efficacy of compounds was evaluated by TGI (%) or relative tumor proliferation rate T/C (%). Relative tumor proliferation rate T/C (%)=TRTV/CRTV×100% (TRTV: RTV in a treatment group; CRTV: RTV in a negative control group). The relative tumor volume (RTV) was calculated according to results of tumor measurement, and the calculation formula was RTV=Vt/VO, where VO was average tumor volume measured at the time of administration by group (i.e., DO), and Vt was average tumor volume at the time of a certain measurement. For TRTV and CRTV, data on the same day were used.
TGI (%) reflected tumor growth inhibition rate. TGI (%)=[(1−(average tumor volume at the end of administration of a treatment group−average tumor volume at the beginning of administration of the treatment group))/(average tumor volume at the end of treatment of a vehicle control group−average tumor volume at the beginning of treatment of the vehicle control group)]×100%.

| SMILES | Detection of assay compound content within 120 min [1] [%] | Detection of assay compound content within 120 min [2] [%] | Protein unbound rate [3] | Average tumor volume ([4]; 10 mg/kg PO QD) [mm^3] | T/C ([4]; 10 mg/kg PO QD) [%] | TGI ([4]; 10 mg/kg PO QD) [%] | Average tumor volume ([4]; 30 mg/kg PO QD) [mm^3] | T/C ([4]; 30 mg/kg PO QD) [%] | TGI ([4]; 30 mg/kg PO QD) [%] |
| --- | --- | --- | --- | --- | --- | --- | --- | --- | --- |
| C=C(F)C(=O)N1CCN(c2nc(OCC3CCCN3C)nc3c2COC(c2c(F)c(N)cc(C)c2C(F)(F)F)C3)CC1CC#N.Cl (single isomer, unassigned) [Compound 8B hydrochloride] | 110 | 100 | 23.9 | 745.84 | 36.99 | 66.89 | 227.15 | 11.28 | 94.23 |
| C=C(F)C(=O)N1CCN(c2nc(OC[C@@]34CCCN3C[C@H](F)C4)nc3c2COC(c2c(F)c(N)cc(C)c2C(F)(F)F)C3)C[C@@H]1CC#N (stereo partly drawn) [Compound 17] | 94 | 117 | 7.8 | 249.87 | 12.39 | 93.06 | 124.14 | 6.16 | 99.64 |
